Source: PubChem BioAssay (NCI)
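Where inhibition never reached the appropriate level, the endpoint shown equals the highest concentration tested. Otherwise, values were interpolated linearly from a five-concentration, 48-hour dose response in 96-well plates. Abbreviation: GI50, concentration required for 50% inhibition of growth. TGI is the concentration that stops growth completely.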

What was measured:
Assay in all cases: NCI anticancer screen, dose series, 48 h
[1] = tested on: 786-0 renal
[2] = tested on: A498 renal
[3] = tested on: A549 NSCLC
[4] = tested on: ACHN renal
[5] = tested on: BT-549 breast
[6] = tested on: CAKI-1 renal
[7] = tested on: CCRF-CEM leukemia
[8] = tested on: COLO 205 colon
[9] = tested on: DU-145 prostate
[10] = tested on: EKVX NSCLC
[11] = tested on: HCC-2998 colon
[12] = tested on: HCT-116 colon
[13] = tested on: HCT-15 colon
[14] = tested on: HL-60(TB) leukemia
[15] = tested on: HOP-62 NSCLC
[16] = tested on: HOP-92 NSCLC
[17] = tested on: HS 578T breast
[18] = tested on: HT29 colon
[19] = tested on: IGROV1 ovarian
[20] = tested on: K-562 leukemia
[21] = tested on: KM12 colon
[22] = tested on: LOX IMVI melanoma
[23] = tested on: M14 melanoma
[24] = tested on: MALME-3M melanoma
[25] = tested on: MCF7 breast
[26] = tested on: MDA-MB-231 breast
[27] = tested on: MDA-MB-435
[28] = tested on: MOLT-4 leukemia
[29] = tested on: NCI-H226 lung
[30] = tested on: NCI-H23 lung
[31] = tested on: NCI-H460 lung
[32] = tested on: NCI-H522 lung
[33] = tested on: NCI/ADR-RES ovarian
[34] = tested on: OVCAR-3 ovarian
[35] = tested on: OVCAR-4 ovarian
[36] = tested on: OVCAR-5 ovarian
[37] = tested on: OVCAR-8 ovarian
[38] = tested on: PC-3 prostate
[39] = tested on: RPMI-8226 leukemia
[40] = tested on: RXF 393 renal
[41] = tested on: SF-268 CNS
[42] = tested on: SF-295 CNS
[43] = tested on: SF-539 CNS
[44] = tested on: SK-MEL-2 melanoma
[45] = tested on: SK-MEL-28 melanoma
[46] = tested on: SK-MEL-5 melanoma
[47] = tested on: SK-OV-3 ovarian
[48] = tested on: SN12C renal
[49] = tested on: SNB-19 CNS
[50] = tested on: SNB-75 CNS
[51] = tested on: SR leukemia
[52] = tested on: SW-620 colon
[53] = tested on: T-47D breast
[54] = tested on: TK-10 renal
[55] = tested on: U251 CNS
[56] = tested on: UACC-257 melanoma
[57] = tested on: UACC-62 melanoma
[58] = tested on: UO-31 renal

**Q.** For `COc1ccc(C(C)=C(c2ccc(OCCN(C)C)cc2)c2ccc(OCCN(C)C)cc2)cc1`, which GI50 [1] is on record?
**A.** 445 nM

**Q.** What about the TGI [1] of the same compound?
**A.** 1100 nM

**Q.** What about the GI50 [2] of the same compound?
**A.** 1130 nM

**Q.** And the TGI [2]?
**A.** 4150 nM

**Q.** And the GI50 [3]?
**A.** 1030 nM

**Q.** And the TGI [3]?
**A.** 4480 nM

**Q.** What about the GI50 [4] of the same compound?
**A.** 763 nM

**Q.** What about the TGI [4] of the same compound?
**A.** 2510 nM

**Q.** What about the GI50 [5] of the same compound?
**A.** 1850 nM

**Q.** What about the TGI [5] of the same compound?
**A.** 5240 nM

**Q.** And the GI50 [6]?
**A.** 647 nM

**Q.** And the TGI [6]?
**A.** 2310 nM

**Q.** And the GI50 [7]?
**A.** 624 nM

**Q.** What about the TGI [7] of the same compound?
**A.** 2360 nM

**Q.** And the GI50 [8]?
**A.** 432 nM

**Q.** And the TGI [8]?
**A.** 908 nM

**Q.** What about the GI50 [9] of the same compound?
**A.** 1810 nM

**Q.** And the TGI [9]?
**A.** 5180 nM

**Q.** And the GI50 [10]?
**A.** 1650 nM

**Q.** And the TGI [10]?
**A.** 5250 nM

**Q.** And the GI50 [11]?
**A.** 858 nM

**Q.** What about the TGI [11] of the same compound?
**A.** 3490 nM

**Q.** And the GI50 [12]?
**A.** 415 nM

**Q.** And the TGI [12]?
**A.** 2450 nM

**Q.** What about the GI50 [13] of the same compound?
**A.** 582 nM

**Q.** And the TGI [13]?
**A.** 2050 nM

**Q.** And the GI50 [14]?
**A.** 477 nM

**Q.** What about the TGI [14] of the same compound?
**A.** 999 nM

**Q.** And the GI50 [15]?
**A.** 1360 nM

**Q.** And the TGI [15]?
**A.** 3420 nM

**Q.** And the GI50 [16]?
**A.** 633 nM

**Q.** And the TGI [16]?
**A.** 3170 nM

**Q.** And the GI50 [17]?
**A.** 884 nM

**Q.** What about the TGI [17] of the same compound?
**A.** 4250 nM

**Q.** And the GI50 [18]?
**A.** 490 nM

**Q.** What about the TGI [18] of the same compound?
**A.** 1630 nM

**Q.** What about the GI50 [19] of the same compound?
**A.** 1100 nM

**Q.** And the TGI [19]?
**A.** 3920 nM

**Q.** And the GI50 [20]?
**A.** 395 nM

**Q.** And the TGI [20]?
**A.** 918 nM

**Q.** What about the GI50 [21] of the same compound?
**A.** 1070 nM

**Q.** And the TGI [21]?
**A.** 4210 nM

**Q.** What about the GI50 [22] of the same compound?
**A.** 343 nM

**Q.** What about the TGI [22] of the same compound?
**A.** 741 nM

**Q.** And the GI50 [23]?
**A.** 427 nM

**Q.** And the TGI [23]?
**A.** 824 nM

**Q.** And the GI50 [24]?
**A.** 439 nM

**Q.** What about the TGI [24] of the same compound?
**A.** 893 nM

**Q.** What about the GI50 [25] of the same compound?
**A.** 243 nM

**Q.** And the TGI [25]?
**A.** 889 nM

**Q.** And the GI50 [26]?
**A.** 684 nM

**Q.** What about the TGI [26] of the same compound?
**A.** 2290 nM

**Q.** What about the GI50 [27] of the same compound?
**A.** 507 nM

**Q.** What about the TGI [27] of the same compound?
**A.** 1130 nM

**Q.** And the GI50 [28]?
**A.** 544 nM

**Q.** And the TGI [28]?
**A.** 1610 nM

**Q.** What about the GI50 [29] of the same compound?
**A.** 3030 nM

**Q.** And the TGI [29]?
**A.** 6890 nM

**Q.** What about the GI50 [30] of the same compound?
**A.** 2950 nM

**Q.** What about the TGI [30] of the same compound?
**A.** 6530 nM

**Q.** What about the GI50 [31] of the same compound?
**A.** 828 nM

**Q.** What about the TGI [31] of the same compound?
**A.** 2940 nM

**Q.** And the GI50 [32]?
**A.** 866 nM

**Q.** And the TGI [32]?
**A.** 3620 nM

**Q.** What about the GI50 [33] of the same compound?
**A.** 1340 nM

**Q.** And the TGI [33]?
**A.** 4680 nM

**Q.** And the GI50 [34]?
**A.** 585 nM

**Q.** What about the TGI [34] of the same compound?
**A.** 1790 nM

**Q.** And the GI50 [35]?
**A.** 865 nM

**Q.** What about the TGI [35] of the same compound?
**A.** 3250 nM

**Q.** What about the GI50 [36] of the same compound?
**A.** 1720 nM

**Q.** What about the TGI [36] of the same compound?
**A.** 5010 nM

**Q.** What about the GI50 [37] of the same compound?
**A.** 1170 nM

**Q.** And the TGI [37]?
**A.** 4540 nM

**Q.** And the GI50 [38]?
**A.** 1360 nM

**Q.** And the TGI [38]?
**A.** 4810 nM

**Q.** And the GI50 [39]?
**A.** 584 nM

**Q.** And the TGI [39]?
**A.** 1510 nM

**Q.** What about the GI50 [40] of the same compound?
**A.** 381 nM

**Q.** What about the TGI [40] of the same compound?
**A.** 934 nM

**Q.** What about the GI50 [41] of the same compound?
**A.** 1110 nM

**Q.** What about the TGI [41] of the same compound?
**A.** 4350 nM

**Q.** And the GI50 [42]?
**A.** 510 nM

**Q.** What about the TGI [42] of the same compound?
**A.** 1180 nM

**Q.** What about the GI50 [43] of the same compound?
**A.** 468 nM

**Q.** What about the TGI [43] of the same compound?
**A.** 948 nM

**Q.** What about the GI50 [44] of the same compound?
**A.** 588 nM

**Q.** And the TGI [44]?
**A.** 1390 nM

**Q.** What about the GI50 [45] of the same compound?
**A.** 464 nM

**Q.** And the TGI [45]?
**A.** 904 nM

**Q.** And the GI50 [46]?
**A.** 432 nM

**Q.** And the TGI [46]?
**A.** 794 nM

**Q.** What about the GI50 [47] of the same compound?
**A.** 3910 nM

**Q.** And the TGI [47]?
**A.** 7510 nM

**Q.** And the GI50 [48]?
**A.** 2000 nM

**Q.** What about the TGI [48] of the same compound?
**A.** 6090 nM

**Q.** What about the GI50 [49] of the same compound?
**A.** 1330 nM

**Q.** What about the TGI [49] of the same compound?
**A.** 4860 nM

**Q.** And the GI50 [50]?
**A.** 2280 nM

**Q.** What about the TGI [50] of the same compound?
**A.** 5950 nM

**Q.** And the GI50 [51]?
**A.** 321 nM

**Q.** And the TGI [51]?
**A.** 941 nM

**Q.** What about the GI50 [52] of the same compound?
**A.** 639 nM

**Q.** And the TGI [52]?
**A.** 2220 nM

**Q.** What about the GI50 [53] of the same compound?
**A.** 374 nM

**Q.** And the TGI [53]?
**A.** 966 nM

**Q.** What about the GI50 [54] of the same compound?
**A.** 3310 nM

**Q.** What about the TGI [54] of the same compound?
**A.** 6860 nM

**Q.** What about the GI50 [55] of the same compound?
**A.** 679 nM

**Q.** What about the TGI [55] of the same compound?
**A.** 2610 nM

**Q.** And the GI50 [56]?
**A.** 469 nM

**Q.** And the TGI [56]?
**A.** 957 nM

**Q.** And the GI50 [57]?
**A.** 533 nM

**Q.** And the TGI [57]?
**A.** 1250 nM

**Q.** What about the GI50 [58] of the same compound?
**A.** 804 nM

**Q.** What about the TGI [58] of the same compound?
**A.** 2110 nM
